Earlier results, collected in US20170202789A1, “METHODS AND RELATED COMPOSITIONS FOR IMPROVED DRUG BIOAVAILABILITY AND DISEASE TREATMENT” (priority 2014, published 2017).

How the values were obtained:
[1] = 400 mg, untrained individuals
[2] = co-administration with carbohydrate drink, depending on dose and frequency
[3] = 6 mg/kg + maintenance doses, with 7% carbohydrate drink
[4] = caffeine 160 mg drink prior to cycling time trial, p<0.01
[5] = 3 mg/kg one hour prior to running, p<0.05
[6] = doses of 6-9 mg/kg

SMILES | concentration at which formation of EP is inhibited (Na/K ATPase) | cognitive function before exercise (energy drink with caffeine, low dose) | cognitive function after exercise (low and medium dose caffeine containing energy drinks) | effect on bench press, leg extension strength or cycle ergometry [1] | increase in performance [2] | difference in performance with versus without caffeine [3] | reduction of time to complete the trial [4] [%] | improvement in performance compared to placebo [5] [%] | adverse effects [6]
[O]=[V]([O-])([O-])[O-] [vanadate] | less than 1 micromolar |  |  |  |  |  |  |  | 
Cn1c(=O)c2c(ncn2C)n(C)c1=O [caffeine] |  | improved long term memory | improved all cognitive tests | did not have any positive effects | 2-3% | No differences were noted | ~5 | 1.2 | jitters, increased heart rate, and a diminution in exercise performance
